species: Mus musculus; assay: Relative CNS activity against reserpine hypothermia in mice relatived to TRH; type: functional, Central nervous system

Row | SMILES | Relative activity
1 | NC(=O)[C@H]1CCCN1C(=O)[C@H](Cc1c[nH]cn1)NC(=O)c1nc(O)nc(O)c1Br | 0.7
2 | CCc1c(O)nc(O)nc1C(=O)N[C@@H](Cc1c[nH]cn1)C(=O)N1CCC[C@@H]1C(N)=O | 0.09
3 | CC1SCC(C(=O)N[C@@H](Cc2c[nH]cn2)C(=O)N2CCC[C@@H]2C(N)=O)NC1=O (stereo partly specified) | 83
4 | CCCc1c(O)nc(O)nc1C(=O)N[C@@H](Cc1c[nH]cn1)C(=O)N1CCC[C@@H]1C(N)=O | 0.8
5 | C[C@@H]1SCC(C(=O)N[C@@H](Cc2c[nH]cn2)C(=O)N2CCC[C@@H]2C(N)=O)NC1=O (stereo partly specified) | 17
6 | NC(=O)[C@@H]1CCCN1C(=O)[C@@H](Cc1c[nH]cn1)NC(=O)[C@@H]1CSC(=O)N1 | 0.8
